Experiments:
HeLa cells [1] = assay: Annexin V-FITC/PI apoptosis assay; format: cell-based, human; conditions: 12 μM
From the text: Apoptosis in cancer cells could be caused by the generation of intracellular ROS [31, 32, 33]. Three methods were utilized to assess the effect of compound 5c on the apoptosis of HeLa cells. First, Hoechst 33342 was utilized to stain the HeLa cells that were pretreated with different concentrations of compound 5c. Then, the cells were observed under a fluorescence microscope. […] Second, an annexin V-FITC/PI double staining method was used to quantitatively detect the effect of compound 5c on cell apoptosis. A quantitative analysis was performed using a flow cytometry analysis. […] Third, the levels of Bcl-xl family proteins, well-known as apoptosis-related proteins, were determined by Western blotting analysis.
(§1) For the cell cycle analysis, HeLa cells seeded in a 6-well plate (3 × 10^5 per well) were incubated with different concentrations of compound 5c or 0.1% DMSO for 24 h. Then, the cells were digested with 0.25% trypsin (without EDTA) and were washed twice with PBS, fixed in 70% ethanol overnight, and stained with PI ([…], Sigma) plus 0.2 mg/mL of DNase-free RNase A (Qiagen) for 20 minutes at room temperature. For the annexin V apoptosis assay, HeLa cells seeded in a 6-well plate (3 × 10^5 per well) were incubated with different concentrations of compound 5c or 0.1% DMSO for 24 h. Then, the cells were digested with 0.25% trypsin (without EDTA) and were washed twice with PBS. […]

[2] = tested on: four cancer cell lines (HeLa, PC3, A549, and HCT116); assay: CCK-8 inhibition rates over four cancer cell lines; format: cell-based; conditions: Homo sapiens, HeLa, PC3, A549, HCT116, CCK-8, read-out: inhibition rate, span over the four cancer cell lines
Method: First, the inhibition rates at 20 μM for all newly synthesized compounds were evaluated on four cancer cell lines (HeLa, PC3, A549, and HCT116) by a CCK-8 assay. […] A variety of aliphatic amine substituents were well tolerated (4e, 4f, 5c, and 8f).
(§2) Human cervical cancer HeLa, human prostate cancer PC3, human colonic carcinoma HCT116, human lung carcinoma A549, human breast cancer MDA-MB-231, mouse melanoma B16, human ovarian cancer SKOV3, human hepatoma Hep3B, and human liver L02 cells were purchased from the Cell Bank of Shanghai Institute of Biochemistry and Cell Biology, Chinese Academy of Sciences (Shanghai, China). The HeLa, A549, B16, PC3, MDA-MB-231, HCT116, and L02 cells were cultured in Dulbecco’s modified Eagle medium (DMEM, Gibco Inc.; Gaithersburg, MD, USA). All cultures were supplied with 10% fetal bovine serum (FBS; YHSM, Beijing, China), 100 IU/mL of penicillin, and 100 μg/mL of streptomycin, and cells were incubated at 37 °C in an atmosphere of 5% CO2.
(§3) A CCK-8 kit (MCE, USA) was used to perform a CCK-8 assay. Cells were plated and grown in the 96-well plates for the indicated period (48 h) in the incubator, followed by an incubation with the CCK-8 solutions for 1–4 h. Subsequently, the absorbance (450 nm) was measured by a microplate reader. The median inhibitory concentration (IC50) was determined from the dose–response curve. Experiments were performed in a triplicate.

MDA-MB-231 = assay: CCK-8 anti-proliferation assay, MDA-MB-231; format: cell-based, human; conditions: mean ± SD
Method: as §2, §3

STAT3 in HeLa cells = assay: Western blot, STAT3 and p-STAT3 (Y705); format: cell-based, human; conditions: 6–12 μM, 24 h
Method: As many quinone compounds have anti-proliferation activity by inhibiting the STAT3 [34], we evaluated whether compound 5c could inhibit its phosphorylation. HeLa cells were incubated with different concentrations (6–12 μM) of 5c for 24 h. Then, the levels of total STAT3 and phosphorylated STAT3 at the tyrosine 705 residue were detected by a Western blot analysis.
Protein levels were determined by the standard Western blot assay. HeLa cells were incubated with different concentrations of compound 5c or 0.1% DMSO for 24 h. […] The bound immuno-complexes were detected using a ChemiDOC XRS+ system (BioRad Laboratories, Hercules, CA, USA).

HeLa cells [3] = assay: Cell cycle analysis by flow cytometry; format: cell-based, human; conditions: 12 μM; 24 h; 10.19% at 0 μM
Method: To investigate the effect of compound 5c on the cell cycle distribution, a flow cytometric analysis was performed. HeLa cells were treated with 5c at concentrations of 0 μM, 6 μM, 9 μM, and 12 μM for 24 h and then subjected to a flow cytometric analysis after DNA staining. […] Accordingly, treatment of HeLa cells with 5c induced a G2/M phase arrest of cell cycle progression.
as §1, with “PBS. The cells were then collected and resuspended in 500 μL of the binding buffer. We added 5 μL of annexin V-FITC and PI each into the mixture in the dark. After 20 min of incubation, a flow cytometer (FACSCalibur; Becton Dickinson, Franklin Lakes, NJ, USA) was used to detect apoptosis (FITC Ex/Em = 488/525 nm and PI Ex/Em = 535/615 nm).” for “PBS.”

IC50 (MDA-MB-231; 48 h): 40.74 ± 0.12 µM
IC50 (MDA-MB-231; Homo sapiens, MDA-MB-231, 48 h): > 20.5 µM
Structure (SMILES): N#C/C(=C\c1ccc(C2=CC(=O)c3ccccc3C2=O)o1)C(=O)NCCN1CCOCC1 [Compound 5c, (E)-2-cyano-3-(5-(1,4-dioxo-1,4-dihydronaphthalen-2-yl)furan-2-yl)-N-(2-morpholinoethyl)acrylamide]
percentage of apoptotic cells (HeLa cells [1]): 46.70%
inhibition at 20 µM [2]: 24.7 to 75.8%
Y705 STAT3 phosphorylation (STAT3 in HeLa cells): dose-dependently abrogated
level of total STAT3 (STAT3 in HeLa cells): slightly down-regulated
HeLa cell population in the G2/M phase (HeLa cells [3]): 23.88%

Reference: PMC9609996, “SAR Study and Molecular Mechanism Investigation of Novel Naphthoquinone-furan-2-cyanoacryloyl Hybrids with Antitumor Activity” (Pharmaceutics, 2022)
